Assay results from patent US20230134986A1, “GLUCOSE TRIPTOLIDE CONJUGATES AND USES THEREOF” (The Johns Hopkins University, priority 2020, published 2023).

Columns and labels:
[1] = test system: HEK 293T cells; assay: HEK293T cell proliferation assay ([3H]-thymidine incorporation); assay type: cell-based, human; settings: Homo sapiens; anti-proliferative activity, HEK 293T cells, 24 h drug exposure; read-out: IC50 ± SEM
Excerpt: Cells and culture conditions. Primary astrocytes (Lonza, Walkersville, Md.; ABM™ Basal Media with AGM™ SingleQuots™ Supplement Pack), fibroblast (ATCC; Fibroblast Basal Medium (ATCC© PCS-201-030™) with Fibroblast Growth Kit-Serum-free (ATCC© PCS-201-040™)), airway epithelial cell (ATCC; Airway Epithelial Cell Basal Medium (ATCC© PCS-300-030™) with Bronchial Epithelial Cell Growth Kit (ATCC© PCS-300-040™)), renal proximal tubule (ATCC; Renal Epithelial Cell Basal Medium (ATCC© PCS-400-030™) with Renal Epithelial Cell Growth Kit (ATCC© PCS-400-040™)), prostate epithelial cell (Lonza; PrEGM™ BulletKit™) and mammary epithelial cell (Lonza; MEBM™ BulletKit™) were kept in a humidified incubator at 37° C. adjusted to 5% CO2. Prostate (PC3, LNCaP, DU-145), breast (MDA-MB-231, MDA-MB-453, SK-BR-3), head and neck (A253, Detroit 562, SCC-25), melanoma (SK-Mel-3, SK-Mel-1, RPMI-7951), pancreatic (CfPAC-1, BxPC3, SW1990), lung (A549, NCI-H1299, NCI-H1437) and liver (SNU-475, SK-HEP-1, SNU-387) cancer cell lines were obtained from ATCC and cultured in their respective media (prostate cells: RPMI-1640, MDA-MB-231: RPMI-1640, MDA-MB-453: Leibovitz's L-15, SK-BR-3: McCoy's 5a, A253: McCoy's 5a, Detroit 562: EMEM, SCC-25: DMEM, SK-Mel-3: McCoy's 5a, SK-Mel-1: EMEM, RPMI-7951: EMEM), CfPAC-1: IMDM, BxPC3: RPMI-1640, SW1990: Leibovitz's L-15), A549: F-12K, NCI-H1299: RPMI-1640, NCI-H1437: RPMI-1640, SNU-475: RPMI-1640, SK-HEP-1: EMEM, SNU-387: RPMI-1640. All media were supplemented with 10% (vol/vol) filtered fetal bovine serum (FBS, Invitrogen, Carlsbad, Calif.), 1% penicillin/streptomycin (Invitrogen) and maintained in a humidified incubator at 37° C. with 5% CO2 except for MDA-MB-453 and SW1990 grown at 37° C. without CO2 control. Wild type (ATCC) and C342T XPB knock-in cells (named T7115) of Human Embryonic Kidney 293T (HEK293T), HeLa (ATCC) were cultured in DMEM (GIBCO) with 10% (vol/vol) filtered fetal bovine serum (FBS, Invitrogen, Carlsbad, Calif.), 1% penicillin/streptomycin (Invitrogen).
(§1) Proliferation and viability assays. [^3H]-thymidine incorporation. HEK293T cells (10,000 cells/well) were seeded into 96-well plates then cultured in DMEM plus 10% FBS and 1% penicillin/streptomycin at 37° C. with 5% CO2 overnight. Drugs were added at indicated concentrations and incubation was continued for an additional 24 h. For hypoxia, PC3 (5,000 cells/well) were exposed to 1% O2 (Airgas) in a humidified hypoxia chamber (Billups-Rothenberg) in 37° C. for 48 h prior to drug exposure for 48 h. Treated cells were then pulsed using an aliquot of 1 μCi of [^3H]-thymidine (Perkin Elmer) per well for an additional 6 h. Radiolabelled cells were harvested onto a printed Filtermat A glass fiber filter (Perkin Elmer) using a Tomtec Harvester 96 Mach III M. Betaplate Scint (Perkin Elmer) scintillation fluid was added to radiolabelled filters followed by scintillation counting on Microbeta2 LumiJET Microplate Counter (Perkin Elmer).

[2] = test system: RPB1 (RNAPII) in PC3 cells; assay: RPB1 degradation in PC3 cells under hypoxia, immunocytochemistry and western blot; assay type: cell-based, human; settings: PC3, hypoxic (1% O2), 10 mM WZB117 plus 3 mM compound 1 (so in the source); μM)
Method: (§2) Western blot analysis. Whole cell lysates were prepared by adding lysis buffer [4% SDS, 20% glycerol, 10% 2-mercaptoethanol, 0.004% bromophenol blue, 0.125 M Tris-HCl (pH 6.8)] to the cell pellets for 30 minutes in ice followed by centrifugation at 12,000×g for 10 minutes then boiling for 5 minutes. For isolation of cytosolic and mitochondrial fractions of cytochrome C, cell pellets were resuspended in CLAMI buffer (250 mM sucrose, 70 mM KCl, […] digitonin in 1×PBS, protease inhibitor cocktail (1 tablet/10 ml CLAMI buffer)) then incubated on ice for 5 minutes. After centrifugation at 12,000×g for 5 minutes at 4° C., supernatant (cytoplasmic fraction) was collected and the pellet resuspended in lysis buffer as described above. Proteins were then separated by SDS-PAGE and transferred to nitrocellulose membranes (Bio-Rad). […] Antibody-protein complexes were detected using enhanced chemiluminescence (ECL) immunoblotting detection reagent (EMD Millipore).
(§3) Immunocytochemistry and cytochemistry. […] Glucose uptake was monitored by incubating cells in 200 μM 2-NBDG (ThermoFisher) for 6 hours prior to fixation. Fluorescence was observed under the Nikon Eclipse TE200 Inverted microscope (Nikon Instruments Inc., Melville, N.Y., USA). […] Rpb1 levels were measured using the MEASURE feature of ImageJ where all the background signals were subtracted from the intergrated density of nuclear Rpb1.

[3] = cited from earlier work
[4] = test system: HeLa cells; assay: Apoptosis signaling in HeLa cells (nuclear fragmentation, cytochrome c, caspase 3, PARP1); assay type: cell-based, human; settings: co-treatment with higher concentrations of SP
Method: (§4) Western blot analysis. Whole cell lysates were prepared by adding lysis buffer [4% SDS, 20% glycerol, 10% 2-mercaptoethanol, 0.004% bromophenol blue, 0.125 M Tris-HCl (pH 6.8)] to the cell pellets for 30 minutes in ice followed by centrifugation at 12,000×g for 10 minutes then boiling for 5 minutes. For isolation of cytosolic and mitochondrial fractions of cytochrome C, cell pellets were resuspended in CLAMI buffer (250 mM sucrose, 70 mM KCl, […] digitonin in 1×PBS, protease inhibitor cocktail (1 tablet/10 ml CLAMI buffer)) then incubated on ice for 5 minutes. After centrifugation at 12,000×g for 5 minutes at 4° C., supernatant (cytoplasmic fraction) was collected and the pellet resuspended in lysis buffer as described above. Proteins were then separated by SDS-PAGE and transferred to nitrocellulose membranes (Bio-Rad). After blocking at room temperature for 1 h, membranes were incubated at 4′C overnight with the primary antibodies including anti-Rpb1 (Santa Cruz Biotechnology), anti-XPB (Biotechne), anti-Actin (Developmental Studies Hybridoma Bank), anti-GAPDH (Santa Cruz Biotechnology), anti-cytochrome C (Santa Cruz Biotechnology), anti-PARP1 (Santa Cruz Biotechnology), anti-cleaved caspase 3 (Cell Signaling Technology), anti-VDAC (ProteinTech), anti-HIF-1[…] (BD sciences), and anti-GLUT1 (Santa Cruz Biotechnology) antibodies followed by incubation with horseradish peroxidase-conjugated anti-mouse or anti-rabbit IgG (GE Healthcare) at room temperature for 2 hours. Antibody-protein complexes were detected using enhanced chemiluminescence (ECL) immunoblotting detection reagent (EMD Millipore).
Immunocytochemistry and cytochemistry. HeLa or PC3 cells (2×10^5) were seeded on a MatTek glass bottom culture dish (Fisher Scientific, Pittsburgh, Pa., USA) and allowed to adhere for 24 h. Cells were then treated with either DMSO or drugs for 6 or 24 h then fixed with 4% paraformaldehyde, permeabilized using 1×PBS with 0.5% triton X 100 then probed for endogenous RNA Polymerase II catalytic subunit Rpb1 or HIF-1α using anti-RNAPII (Santa Cruz Biotechnology) and anti-HIF-1α (BD sciences) antibodies, respectively. Detection was then done using anti-mouse Alexa Fluor 488 (Invitrogen). For nuclear staining, fixed and permeabilized cells were incubated in DAPI (ThermoFisher) or Hoechst 33258 (Sigma) for 30 minutes prior to imaging. Glucose uptake was monitored by incubating cells in 200 μM 2-NBDG (ThermoFisher) for 6 hours prior to fixation. Fluorescence was observed under the Nikon Eclipse TE200 Inverted microscope (Nikon Instruments Inc., Melville, N.Y., USA). ImageJ software (NIH, Bethesda, Md., USA; http://imagej.nih.gov/ij/index.html) was used to measure intracellular protein levels in immuno-cytochemistry samples (Li et al. (2015) Toxicological Sciences: an Official Journal of the Society of Toxicology 143:196-208). Rpb1 levels were measured using the MEASURE feature of ImageJ where all the background signals were subtracted from the intergrated density of nuclear Rpb1.

[5] = target: T1, XPB (Homo sapiens, UniProt P19447); assay: XPB degradation in cells, western blot; assay type: cell-based; settings: 10 mM SP (so in the source)
T1 construct: spironolactone induces the degradation of endogenous XPB in cells; endogenous in cells
Method: as §2

[6] = test system: RPB1 (catalytic subunit of RNAPII); assay: RPB1 (RNAPII) degradation in HeLa cells, immunostaining and western blot; assay type: cell-based, human
Method: as §4, §3

[7] = test system: PC3 cells; assay: PC3 proliferation under hypoxia or normoxia ([3H]-thymidine incorporation); assay type: cell-based, human; settings: hypoxia versus normoxia
Method: as §1

[8] = lethal case dosed with 18 mg/m2 F60008

T1 sequence (P19447 whole entry): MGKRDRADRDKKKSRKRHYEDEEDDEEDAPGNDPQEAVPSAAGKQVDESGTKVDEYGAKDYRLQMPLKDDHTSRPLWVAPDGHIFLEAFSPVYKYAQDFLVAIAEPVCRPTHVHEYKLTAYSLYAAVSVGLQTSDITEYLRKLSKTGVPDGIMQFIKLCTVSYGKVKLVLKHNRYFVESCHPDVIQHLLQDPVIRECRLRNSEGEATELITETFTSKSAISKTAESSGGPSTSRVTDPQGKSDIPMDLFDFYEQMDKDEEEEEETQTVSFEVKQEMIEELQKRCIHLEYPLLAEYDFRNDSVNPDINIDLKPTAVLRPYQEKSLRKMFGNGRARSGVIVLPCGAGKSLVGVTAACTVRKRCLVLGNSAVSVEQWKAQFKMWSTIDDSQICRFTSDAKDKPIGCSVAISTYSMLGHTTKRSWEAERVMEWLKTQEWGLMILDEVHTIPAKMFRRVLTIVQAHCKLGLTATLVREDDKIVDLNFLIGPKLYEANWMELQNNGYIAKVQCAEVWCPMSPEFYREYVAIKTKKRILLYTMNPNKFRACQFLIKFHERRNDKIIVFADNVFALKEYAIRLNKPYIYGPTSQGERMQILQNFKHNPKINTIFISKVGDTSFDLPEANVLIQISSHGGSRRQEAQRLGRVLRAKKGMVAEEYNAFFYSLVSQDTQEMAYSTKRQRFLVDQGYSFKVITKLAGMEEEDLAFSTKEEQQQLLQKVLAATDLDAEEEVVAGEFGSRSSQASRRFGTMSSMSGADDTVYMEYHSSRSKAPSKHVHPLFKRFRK

Compound: CC(C)[C@]12O[C@H]1[C@@H]1O[C@]13[C@]1(O[C@H]1C[C@H]1C4=C(CC[C@@]13C)C(=O)OC4)[C@@H]2OC(=O)c1ccccc1C(=O)O[C@@H]1OC(CO)[C@@H](O)C(O)C1O (stereo partly drawn) [Compound 4]
- IC50 [1]: 5888 ± 1.19 nM

Compound: O=C(Oc1cccc(F)c1OC(=O)c1cccc(O)c1)c1cccc(O)c1 [WZB117, reference compound]
- effect on compound 1-induced RNAPII degradation [2]: abolished the rapid degradation of endogenous RNAPII

Compound: CC(C)C12OC1C1OC13C1(C)CCC4=C(COC4=O)C1CC1OC13C2OC(=O)CCC(=O)O (stereo not drawn) [Compound F60008, triptolide-succinate]
- lethality in patients ([3]; administered with <12 mg/m^2 F60008): no lethality was observed in 18 of the 20 patients
- lethality in early human clinical study ([3]; highest dose of therapy): lethal to two patients
- Maximum serum levels [3, 8]: 1,361 ng/mL
- Maximum serum levels (molar) [3, 8]: ~2.96 mM

Compound: CC(=O)S[C@@H]1CC2=CC(=O)CC[C@]2(C)[C@H]2CC[C@@]3(C)[C@@H](CC[C@@]34CCC(=O)O4)[C@H]12 [spironolactone]
- effect on compound 1-induced PARP1 cleavage [4]: prevented PARP1 cleavage
- degradation of XPB [5]: caused degradation of the majority of XPB
- endogenous RNAPII (RPB1) level ([6]; 10 mM spironolactone alone (so in the source); 10 μM)): do not affect protein levels
- rescue of RNAPII from compound 1-induced degradation ([6]; pre-treatment with 10 mM spironolactone (so in the source), then 1 mM compound 1): rescues endogenous RNAPII

Compound: CC(C)[C@]12O[C@H]1[C@@H]1O[C@]13[C@]1(O[C@H]1C[C@H]1C4=C(CC[C@@]13C)C(=O)OC4)[C@@H]2OC(=O)CCCC(=O)O[C@@H]1OC(CO)[C@@H](O)C(O)C1O (stereo partly drawn) [Compound 6]
- IC50 [1]: 1134 ± 1.15 nM

Compound: CC(C)[C@]12O[C@H]1[C@@H]1O[C@]13[C@]1(O[C@H]1C[C@H]1C4=C(CC[C@@]13C)C(=O)OC4)[C@@H]2OC(=O)CC(C)(C)C(=O)O[C@@H]1OC(CO)[C@@H](O)C(O)C1O (stereo partly drawn) [Compound 2]
- IC50 [1]: 3305 ± 0.98 nM

Compound: CC(C)[C@]12O[C@H]1[C@@H]1O[C@]13[C@]1(O[C@H]1C[C@H]1C4=C(CC[C@@]13C)C(=O)OC4)[C@@H]2OC(=O)CC(C)(C)C(=O)O[C@H]1OC(CO)[C@@H](O)C(O)C1O (stereo partly drawn) [Compound 3]
- IC50 [1]: 999 ± 0.217 nM

Compound: CC(C)[C@]12O[C@H]1[C@@H]1O[C@]13[C@]1(O[C@H]1C[C@H]1C4=C(CC[C@@]13C)C(=O)OC4)[C@@H]2OC(=O)CCC(=O)OCC1OC(O)C(O)C(O)[C@@H]1O (stereo partly drawn) [Compound 8]
- IC50 [1]: 244 ± 0.81 nM

Compound: CC(C)[C@]12O[C@H]1[C@@H]1O[C@]13[C@]1(O[C@H]1C[C@H]1C4=C(CC[C@@]13C)C(=O)OC4)[C@@H]2OC(=O)c1ccccc1C(=O)O[C@H]1OC(CO)[C@@H](O)C(O)C1O (stereo partly drawn) [Compound 5]
- IC50 [1]: 6667 ± 2.03 nM

Compound: CO[C@H]1OC(COC(=O)CCC(=O)O[C@@H]2[C@@]3(C(C)C)O[C@H]3[C@@H]3O[C@]34[C@]23O[C@H]3C[C@H]2C3=C(CC[C@@]24C)C(=O)OC3)[C@@H](O)C(O)C1O (stereo partly drawn) [Compound 9]
- IC50 [1]: 395 ± 0.523 nM

Compound: COc1cccc2c1C(=O)c1c(O)c3c(c(O)c1C2=O)C[C@@](O)(C(=O)CO)C[C@@H]3O[C@H]1C[C@H](N)[C@H](O)[C@H](C)O1 [doxorubicin]
- change of potency under hypoxia [7]: decreased

Compound: CC(C)[C@]12O[C@H]1[C@@H]1O[C@]13[C@]1(O[C@H]1C[C@H]1C4=C(CC[C@@]13C)C(=O)OC4)[C@@H]2OC(=O)CCCC(=O)O[C@H]1OC(CO)[C@@H](O)C(O)C1O (stereo partly drawn) [Compound 7]
- IC50 [1]: 735 ± 1.11 nM
